Tested on: batrachotoxin (BTX) binding site of the sodium channel
Assay: Affinity for the batrachotoxin (BTX) binding site of the sodium channel
Details: rat cerebrocortex synaptosomes, [3H]-Batrachotoxinin A20α benzoate 10 nM

SMILES	BTX (Na+ channel) (% inhibition at 10 μM)
Cc1cn(Cc2ccccc2)c(C(=O)NCCN2CCCC2)c1-c1ccccc1 [Example 77, 1-benzyl-4-methyl-3-phenyl-1H-pyrrole-2-carboxylic acid (2-pyrrolidin-1-ylethyl)-amide]	91%
COc1ccc(-c2c(C)cn(C)c2C(=O)NCCCn2ccnc2)cc1 [Example 53, 3-(4-methoxyphenyl)-1,4-dimethyl-1H-pyrrole-2-carboxylic acid (3-imidazol-1-ylpropyl)-amide]	44%
COc1ccc(Cn2cc(C)c(-c3ccco3)c2C(=O)NCCC2CCCN2C)cc1 (stereo not drawn) [Example 40, 3-furan-2-yl-1-(4-methoxybenzyl)-4-methyl-1H-pyrrole-2-carboxylic acid [2-(1-methylpyrrolidin-2-yl)-ethyl]-amide]	81%
Cc1cn(Cc2ccccc2)c(C(=O)NCCc2ccc(F)cc2)c1-c1ccc(Cl)cc1 [Example 51, 1-benzyl-3-(4-chlorophenyl)-4-methyl-1H-pyrrole-2-carboxylic acid [2-(4-fluorophenyl)-ethyl]-amide]	43%
COc1ccc(-c2c(C)cn(Cc3ccc(F)cc3)c2C(=O)N2CCCC2CN2CCCC2)cc1 (stereo not drawn) [Example 64, [1-(4-fluorobenzyl)-3-(4-methoxyphenyl)-4-methyl-1H-pyrrol-2-yl]-(2-pyrrolidin-1-ylmethylpyrrolidin-1-yl)-methanone]	96%
CCCCn1cc(C)c(-c2ccc(C)cc2)c1C(=O)N1CCN(Cc2cc(OC)ccc2OC)CC1 [Example 68, (1-butyl-4-methyl-3-p-tolyl-1H-pyrrol-2-yl)-[4-(2,5-dimethoxybenzyl)-piperazin-1-yl]-methanone]	84%
CCOc1ccc(Br)cc1CN1CCN(C(=O)c2c(-c3ccccc3)c(C)cn2C)CC1 [Example 41, [4-(5-bromo-2-ethoxybenzyl)-piperazin-1-yl]-(1,4-dimethyl-3-phenyl-1H-pyrrol-2-yl)-methanone]	77%
COc1ccc(CN2CCN(C(=O)c3c(-c4ccccc4)c(C)cn3C)CC2)cc1F [Example 59, (1,4-dimethyl-3-phenyl-1H-pyrrol-2-yl)-[4-(3-fluoro-4-methoxybenzyl)-piperazin-1-yl]-methanone]	75%
CCOc1ccc(CCNC(=O)c2c(-c3ccc(OC)cc3)c(C)cn2Cc2ccc(F)cc2)cc1 [Example 47, 1-(4-fluorobenzyl)-3-(4-methoxyphenyl)-4-methyl-1H-pyrrole-2-carboxylic acid [2-(4-ethoxyphenyl)-ethyl]-amide]	55%
Cc1cnc(C(=O)N2CCN(C(=O)c3c(-c4ccc(Cl)cc4)c(C)cn3Cc3ccccc3F)CC2)cn1 [Example 55, [3-(4-chlorophenyl)-1-(2-fluorobenzyl)-4-methyl-1H-pyrrol-2-yl]-[4-(5-methylpyrazin-2-carbonyl)-piperazin-1-yl]-methanone]	44%
COc1ccc(-c2c(C)cn(C)c2C(=O)NCc2ccc(OC)cc2OC)cc1 [Example 76, 3-(4-methoxyphenyl)-1,4-dimethyl-1H-pyrrole-2-carboxylic acid 2,4-dimethoxybenzylamide]	41%
Cc1ccccc1N1CCN(C(=O)c2c(-c3ccc(Cl)cc3)c(C)cn2C)CC1 [Example 46, [3-(4-chlorophenyl)-1,4-dimethyl-1H-pyrrol-2-yl]-(4-o-tolylpiperazin-1-yl)-methanone]	55%
Cc1cn(Cc2ccc(F)cc2)c(C(=O)NCCCN(C)C)c1-c1ccco1 [Example 63, 1-(4-fluorobenzyl)-3-furan-2-yl-4-methyl-1H-pyrrole-2-carboxylic acid (3-dimethylamino-propyl)-amide]	75%
CCN(CC)CCN1CCN(C(=O)c2c(-c3ccc(C)cc3)c(C)cn2Cc2ccc(C)cc2)CC1 [Example 69, [4-(2-diethylamino-ethyl)-piperazin-1-yl]-[4-methyl-1-(4-methylbenzyl)-3-p-tolyl-1H-pyrrol-2-yl]-methanone]	91%
COc1cc(OC)c(CN2CCN(C(=O)c3c(-c4ccc(C)cc4)c(C)cn3C)CC2)c(OC)c1 [Example 49, (1,4-dimethyl-3-p-tolyl-1H-pyrrol-2-yl)-[4-(2,4,6-trimethoxybenzyl)-piperazin-1-yl]-methanone]	89%
